# From ChEMBL document CHEMBL4706735, “Novel Pyrazolo[3,4-b]pyrazines as SHP2 Inhibitors for Treating Cancer” (ACS Med Chem Lett, 2021)
# Experiment: Inhibition of ERK phosphorylation in human HCC827 cells incubated for 30 mins in serum free medium measured by sandwich ELISA
# Assay type: cell-based
# Conditions: HCC827, 0.5 h
smiles,measurement,value
COc1cnc2ccc(-c3n[nH]c4nc(N5CCC6(CC5)CO[C@@H](C)[C@H]6N)c(CO)nc34)c(Cl)c2n1,IC50,8.4 nM
C[C@@H]1OCC2(CCN(c3nc4[nH]nc(-c5ccc6nn(C)c(Cl)c6c5Cl)c4nc3CO)CC2)[C@@H]1N,IC50,3.6 nM
Cn1nc2ccc(-c3n[nH]c4nc(N5CCC6(CC5)CC(F)(F)C[C@H]6N)c(CO)nc34)c(Cl)c2c1Cl,IC50,6.2 nM
Cn1cc2c(Cl)c(-c3n[nH]c4nc(N5CCC6(CC5)CC(F)(F)C[C@H]6N)c(CO)nc34)ccc2n1,IC50,6.3 nM
C[C@@H]1OCC2(CCN(c3nc4[nH]nc(-c5cccc(Cl)c5F)c4nc3CO)CC2)[C@@H]1N,IC50,5.6 nM
Cn1nc2ccc(-c3n[nH]c4nc(N5CCC6(CC5)C[C@H](F)C[C@H]6N)c(CO)nc34)c(Cl)c2c1Cl,IC50,4.1 nM
